According to patent publication EP4755881A1 (Wuhan Createrna Science and Technology Co., Ltd., priority 2023, dated 2025):

target: hLPAR1 (human lysophosphatidic acid receptor 1, Accession No.: NM_001401.4) (Homo sapiens, UniProt Q92633); assay: cell-based; details: LPAR1 inhibitory activity IC50, Table 1; FLIPR method, CHO-K1 cells overexpressing hLPAR1
Procedure: The antagonist properties of the compounds in the present disclosure were determined using the FLIPR (Fluorometric Imaging Plate Reader) method in CHO-K1 cells (Chinese Hamster Ovary cells K1, ATCC) overexpressing hLPAR1 (human lysophosphatidic acid receptor 1, Accession No.: NM_001401.4).
CHO-K1 cells stably expressing hLPAR1 were placed in a cell culture incubator at 37°C with 5% CO2 and cultured in F-12 medium containing 10% FBS (fetal bovine serum, Gibco, 10099-141), 1% penicillin-streptomycin (Gibco, 15140-122), and 0.4 mg/mL Hygromycin B (Gibco, 10687010). 18-24 hours before the FLIPR experiment, the cells were seeded into a 96-well plate at a density of 250,000 cells/mL (25,000 cells/well) and incubated overnight in the cell culture incubator. On the day of the experiment, the medium was removed, and the cells were washed with FLIPR buffer (2.5 mM probenecid (Thermo, P36400), 1.3 mM CaCl2, 3.3 mM Na2CO3, 1 mM MgSO4, 20 mM HEPES (Invitrogen, 15630080), 1× HBSS (Invitrogen, 14065056), 0.1% BSA (BioSharp, 70080030)). 75 µL of […] Fluo-4 AM fluorescent dye (Thermo, F14202) was added to each well and incubated for 1.0 hour at 37°C for dye loading. The 96-well plate was then washed once with buffer, and 50 µL of buffer containing the test compound or vehicle was added to each well, followed by incubation at room temperature for 30 min. The cell plate was then placed into the FLIPR for baseline fluorescence measurement (excitation wavelength at 485 nm, emission wavelength at 525 to 535 nm). Subsequently, 50 µL/well of agonist (final concentration 1 µM oleoyl-L-α-lysophosphatidic acid sodium salt (Sigma, L7260)) or vehicle (ultrapure water) was added, and fluorescence values were measured at 1-second intervals for 2 min. Finally, the output fluorescence counts were analyzed using GraphPad Prism 9.0 software log(inhibitor) vs. response--Variable slope (four parameters) equation to calculate IC50 values.
Table 1: Inhibitory activity data of compounds against LPAR1

hLPAR1 (human lysophosphatidic acid receptor 1, Accession No.: NM_001401.4), sequence (Q92633 whole entry): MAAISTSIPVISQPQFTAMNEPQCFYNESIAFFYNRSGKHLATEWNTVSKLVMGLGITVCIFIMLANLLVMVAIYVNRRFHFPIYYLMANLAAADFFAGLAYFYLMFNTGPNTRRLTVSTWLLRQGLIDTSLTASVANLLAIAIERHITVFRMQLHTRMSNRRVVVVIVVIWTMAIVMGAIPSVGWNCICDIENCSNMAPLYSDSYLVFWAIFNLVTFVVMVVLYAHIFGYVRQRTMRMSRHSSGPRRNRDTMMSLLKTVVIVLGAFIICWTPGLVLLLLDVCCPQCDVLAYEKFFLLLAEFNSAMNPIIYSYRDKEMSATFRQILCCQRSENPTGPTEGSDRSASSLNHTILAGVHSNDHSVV

Row | Compound | IC50 [nM]
1 | Cc1nc(-c2nnn(C)c2NC(=O)OC(C)C2CC2(F)F)ccc1C#CC1(CC(=O)O)CC1 (stereo not shown) [compound 081] | 174
2 | Cc1nc(-c2nnn(C)c2NC(=O)OC(C)C(C)(C)C)ccc1C#CC1(CC(=O)O)CC1 (stereo not shown) [compound 319] | 124
3 | Cc1nc(-c2nnn(C)c2NC(=O)O[C@H](C)C23CC(C2)C3)ccc1C#CC1(CC(=O)O)CC1 [260-B] | 17.4

same assay, conditions: Table 1; FLIPR method, CHO-K1 cells overexpressing hLPAR1; read-out: LPAR1 inhibitory activity IC50

Row | IC50 [nM] | Compound
4 | 44.3 | CCCCN(C)C(=O)OCc1c(-c2ccc(C#CC3(CC(=O)O)CC3)c(CC)n2)nnn1C [compound 100]
5 | 203 | CCOCc1ccnc(NCc2c(-c3ccc(C#CC4(CC(=O)O)CC4)c(C)n3)nnn2C)n1 [compound 364]
6 | 60.4 | Cc1nc(-c2nnn(C)c2NC(=O)O[C@H](C)c2ccccc2F)ccc1C#C[C@@H]1CCCC[C@H]1C(=O)O (mixture of isomers) [028-B, trans-2-((6-(5-((((R)-1-(2-fluorophenyl)ethoxy)carbonyl)amino)-1-methyl-1H-1,2,3-triazol-4-yl)-2-methylpyridin-3-yl)ethynyl)cyclohexane-1-carboxylic acid]
7 | 90.2 | CN(CCCCF)C(=O)OCc1c(-c2ccc(C#CC3(CC(=O)O)CC3)c(C3CC3)n2)nnn1C [compound 218, 2-(1-((2-cyclopropyl-6-(5-((((4-fluorobutyl)(methyl)carbamoyl)oxy)methyl)-1-methyl-1H-1,2,3-triazol-4-yl)pyridin-3-yl)ethynyl)cyclopropyl)acetic acid]
8 | 42.1 | CCC(F)(F)[C@@H](C)OC(=O)Nc1c(-c2ccc(C#C[C@@H]3CC[C@H]3C(=O)O)c(C)n2)nnn1C (mixture of isomers) [212-A, trans-2-((6-(5-(((((R)-3,3-difluoropentan-2-yl)oxy)carbonyl)amino)-1-methyl-1H-1,2,3-triazol-4-yl)-2-methylpyridin-3-yl)ethynyl)cyclobutane-1-carboxylic acid]
9 | 11.8 | Cc1noc(-c2ccc(C#CC3(CNS(=O)(=O)O)CC3)c(F)c2)c1NC(=O)O[C@H](C)c1ccccc1Cl [compound 460]
10 | 20.4 | Cc1nc(-c2nnn(C)c2COC(=O)N(C)CC2CCC2)ccc1C#CC1CC(F)(F)CC1C(=O)O (racemic) [compound 362]
11 | 7.7 | Cc1nc(-c2nnn(C)c2NC(=O)O[C@H](C)c2ccccc2F)ccc1C#CC1(CC(=O)O)CC1 [compound 014, (R)-2-(1-((6-(5-(((1-(2-fluorophenyl)ethoxy)carbonyl)amino)-1-methyl-1H-1,2,3-triazol-4-yl)-2-methylpyridin-3-yl)ethynyl)cyclopropyl)acetic acid]
12 | 51.1 | Cc1nc(-c2nnn(C)c2COC(=O)N(C)CCC(C)(F)F)ccc1C#CC1(CC(=O)O)CC1 [compound 038, 2-(1-((6-(5-((((3,3-difluorobutyl)(methyl)carbamoyl)oxy)methyl)-1-methyl-1H-1,2,3-triazol-4-yl)-2-methylpyridin-3-yl)ethynyl)cyclopropyl)acetic acid]
13 | 151 | Cc1nc(-c2nnn(C)c2NC(=O)O[C@H](C)C(F)(F)C(C)C)ccc1C#C[C@@H]1CC[C@H]1C(=O)O [compound 307]
14 | 13.8 | Cc1nc(-c2nnn(C)c2COC(=O)N(C)C(C)C2CCC2)ccc1C#CC1(CC(=O)O)CC1 (stereo not shown) [compound 211, 2-(1-((6-(5-((((1-cyclobutylethyl)(methyl)carbamoyl)oxy)methyl)-1-methyl-1H-1,2,3-triazol-4-yl)-2-methylpyridin-3-yl)ethynyl)cyclopropyl)acetic acid]
15 | 55.2 | Cc1nc(-c2nnn(C)c2COC(=O)N(C)C2CCCC2)ccc1C#CC1(CC(=O)O)CC1 [compound 018, 2-(1-((6-(5-(((cyclopentyl(methyl)carbamoyl)oxy)methyl)-1-methyl-1H-1,2,3-triazol-4-yl)-2-methylpyridin-3-yl)ethynyl)cyclopropyl)acetic acid]
16 | 53.6 | Cc1nc(-c2nnn(C)c2NC(=O)OC(C)CC(C)(C)F)ccc1C#CC1CCC1C(=O)O (single isomer, unassigned) [306-B]
17 | 5.7 | Cc1nc(-c2onc(C)c2NC(=O)O[C@H](C)CC(C)(F)F)ccc1C#C[C@@H]1CCC[C@H]1C(=O)O [compound 343]
18 | 10.2 | Cc1nc(-c2nnn(C)c2NC(=O)O[C@H](C)CC(C)(F)F)ccc1C#C[C@@H]1CC(F)(F)C[C@H]1C(=O)O [compound 247]
19 | 45.9 | CCC[C@@H](C)OC(=O)Nc1c(-c2ccc(C#CC3(CC(=O)O)CC3)c(C)n2)nnn1C [010-A]
20 | 47.3 | CCC(F)(F)C[C@@H](C)OC(=O)Nc1c(-c2ccc(C#CC3(CC(=O)O)CC3)c(C)n2)nnn1C [compound 264]
21 | 0.4 | Cc1nc(-c2nnn(C)c2NC(=O)O[C@H](C)c2ccccc2)ccc1C#C[C@@H]1CC(F)(F)C[C@H]1C(=O)O [compound 226]
22 | 219 | Cc1nc(-c2nnn(C)c2NC(=O)OC(C)C2CC(F)(F)C2)ccc1C#CC1(CC(=O)O)CC1 (stereo not shown) [compound 029, 2-(1-((6-(5-(((1-(3,3-difluorocyclobutyl)ethoxy)carbonyl)amino)-1-methyl-1H-1,2,3-triazol-4-yl)-2-methylpyridin-3-yl)ethynyl)cyclopropyl)acetic acid]
23 | 2.6 | CCC[C@@H](C)OC(=O)Nc1c(C)noc1-c1ccc(C#C[C@@H]2CC[C@H]2C(=O)O)c(C)n1 [compound 339]
24 | 0.6 | Cc1nc(-c2nnn(C)c2NC(=O)O[C@H](C)c2ccccc2Cl)ccc1C#C[C@@H]1CCCC[C@H]1C(=O)O (mixture of isomers) [031-A, trans-2-((6-(5-((((R)-1-(2-chlorophenyl)ethoxy)carbonyl)amino)-1-methyl-1H-1,2,3-triazol-4-yl)-2-methylpyridin-3-yl)ethynyl)cyclohexane-1-carboxylic acid]
25 | 52.7 | Cc1nc(-c2nnn(C)c2COC(=O)N(C)CCCCF)ccc1C#CC1(CC(=O)O)CC1 [compound 034, 2-(1-((6-(5-((((4-fluorobutyl)(methyl)carbamoyl)oxy)methyl)-1-methyl-1H-1,2,3-triazol-4-yl)-2-methylpyridin-3-yl)ethynyl)cyclopropyl)acetic acid]
26 | 17.6 | Cc1nc(-c2nnn(C)c2NC(=O)O[C@H](C)c2ccccc2F)ccc1C#C[C@@H]1CCCC[C@H]1C(=O)O (mixture of isomers) [028-A, trans-2-((6-(5-((((R)-1-(2-fluorophenyl)ethoxy)carbonyl)amino)-1-methyl-1H-1,2,3-triazol-4-yl)-2-methylpyridin-3-yl)ethynyl)cyclohexane-1-carboxylic acid]
27 | 30.2 | CCCCN(C)C(=O)OCc1c(-c2ccc(C#C[C@@H]3CC(F)(F)C[C@H]3C(=O)O)c(C)n2)nnn1C (racemic) [compound 252]
28 | 22.6 | Cc1nc(-c2cnn(C)c2NC(=O)O[C@H](C)c2ccccc2Cl)ccc1C#CC1(CC(=O)O)CC1 [compound 005, (R)-2-(1-((6-(5-(((1-(2-chlorophenyl)ethoxy)carbonyl)amino)-1-methyl-1H-pyrazol-4-yl)-2-methylpyridin-3-yl)ethynyl)cyclopropyl)acetic acid]
29 | 129 | Cc1nc(-c2nnn(C)c2COC(=O)N(C)CC2CC2(F)F)ccc1C#CC1(CC(=O)O)CC1 (stereo not shown) [compound 068]

same assay, conditions: read-out: LPAR1 inhibitory activity IC50; Table 1; FLIPR method, CHO-K1 cells overexpressing hLPAR1

Row | Compound | IC50 [nM]
30 | Cc1nc(-c2nnn(C)c2NC(=O)OC(C)CCCF)ccc1C#CC1(CC(=O)O)CC1 (racemic) [compound 280] | 75.7
31 | Cc1nc(-c2nnn(C)c2COC(=O)N(C)CC2CCC2)ccc1C#CC1(CC(=O)O)CC1 [compound 017] | 42.8
